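Compound exposure: 48 hours, 5 concentrations, 96-well plates. GI50 = concentration required for 50% inhibition of growth. At the TGI there is no net growth.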
How the values were obtained:
Assay in all cases: DTP human tumour cell line panel, 48 h
RPMI-8226 leukemia = test system: RPMI-8226 leukemia
OVCAR-5 ovarian = test system: OVCAR-5 ovarian
NCI-H460 lung = test system: NCI-H460 lung
UACC-257 melanoma = test system: UACC-257 melanoma
M19-MEL melanoma = test system: M19-MEL melanoma
HL-60(TB) leukemia = test system: HL-60(TB) leukemia
NCI/ADR-RES ovarian = test system: NCI/ADR-RES ovarian
HT29 colon = test system: HT29 colon
KM20L2 colon = test system: KM20L2 colon
M14 melanoma = test system: M14 melanoma

Structure (SMILES)	TGI (RPMI-8226 leukemia) [µM]	GI50 (OVCAR-5 ovarian) [µM]	TGI (OVCAR-5 ovarian) [µM]	TGI (NCI-H460 lung) [µM]	TGI (UACC-257 melanoma) [µM]	TGI (M19-MEL melanoma) [µM]	TGI (HL-60(TB) leukemia) [µM]	TGI (NCI/ADR-RES ovarian) [µM]	GI50 (HT29 colon) [µM]	TGI (HT29 colon) [µM]	TGI (KM20L2 colon) [µM]	TGI (M14 melanoma) [µM]
O=C(O)/C=C/c1c[nH]c(=O)[nH]c1=O	> 500	> 500	> 500	> 500	> 500	> 500	> 500	> 472	> 500	> 500	> 500	
COc1ccc(NC(=O)CC(=O)n2nc(C)c(N=Nc3ccccc3C(=O)O)c2C)cc1	> 100		> 100	> 100	> 100	> 100	> 100			> 100	> 100	> 100

— PubChem BioAssay (NCI)
